Measurements from patent US10898469B2, “Imidazolylamide derivative” (Sumitomo Dainippon Pharma Co., Ltd., priority 2016, dated 2021).
Where two headings read alike, the source gives them in different places.

Columns and labels:
Assay type in all cases: cell-based, human
FaDu cells = experiment: Inhibition test for sphere-forming ability of cancer cells (Test Example 1), FaDu; conditions: for IC50: concentration for 50% inhibition of cell proliferation, read-out: IC50 (μmol/L) FaDu (Sphere IC50 value); for (100%-inhibition rate of cell proliferation) at 1 μmol/L, FaDu: value with %; for viability at 1 µM: read-out: (100%-inhibition rate of cell proliferation) at 1 μmol/L, 1 μmol/L, value with %
Summary of the method: (§1)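 Sphere IC50 (μmol/L) derived from CellTiter-Glo luminescence after 4 days of compound treatment (final DMSO 0.1%). Non-adherent, serum-free culture of 350-800 cells/well in DMEM/F12 supplemented with 2% B27, EGF, bFGF and insulin assessed self-renewal.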

HCT-116 cells [1] = experiment: Inhibition test for sphere-forming ability of cancer cells (Test Example 1), HCT-116; conditions: for IC50 / (100%-inhibition rate of cell proliferation) at 1 μmol/L, HCT-116 / viability at 1 µM: HCT-116 cells; for IC50: concentration for 50% inhibition of cell proliferation, read-out: IC50 (μmol/L) HCT-116 (Sphere IC50 value); for (100%-inhibition rate of cell proliferation) at 1 μmol/L, HCT-116 / viability at 1 µM: value with %, 1 μmol/L; for viability at 1 µM: read-out: (100%-inhibition rate of cell proliferation) at 1 μmol/L
Summary of the method: as §1

HT-29 cells = experiment: Inhibition test for sphere-forming ability of cancer cells (Test Example 1), HT-29; conditions: for IC50: concentration for 50% inhibition of cell proliferation, read-out: IC50 (μmol/L) HT-29 (Sphere IC50 value); for (100%-inhibition rate of cell proliferation) at 1 μmol/L, HT-29: value with %; for viability at 1 µM: read-out: (100%-inhibition rate of cell proliferation) at 1 μmol/L, 1 μmol/L, value with %
Summary of the method: as §1

HCT-116 cells [2] = experiment: Inhibition test for sphere-forming ability of cancer cells in the presence of BSA (Test Example 2), HCT-116; conditions: Homo sapiens, HCT-116, 96 h, HCT-116 cells, in the presence of 5% BSA, cultured 4 days
Procedure: Human colorectal cancer-derived HCT-116 cells, human colon-adenocarcinoma-derived HT-29 cells, and human pharyngeal cancer-derived FaDu cells were available from American Type Culture Collection (ATCC). HCT-116 cells and HT-29 cells were cultured at 37° C. under 5% CO2 using the McCoy's 5a medium containing 10% fetal bovine serum (FBS) and 1% penicillin/streptomycin, and FaDu cells were cultured at 37° C. under 5% CO2 using the MEM medium containing 10% FBS, 1% non-essential amino acid, 1% sodium pyruvate, 5% bovine serum albumin (BSA), and 1% penicillin/streptomycin. HCT-116 cells, HT-29 cells, and FaDu cells were seeded in a 384 Well Black Clear Bottom Ultra-Low Attachment Microplate (Corning Cat. No. 3827) in an amount of 350-800 cells/well using the DMEM/F12 medium containing 2% B27 supplement (GIBCO), 20 ng/mL epidermal growth factor (EGF) (peprotech), 10 ng/mL basic fibroblast growth factor (bFGF) (peprotech), 5 μg/mL insulin (Sigma), 5% bovine serum albumin (BSA), and 1% penicillin/streptomycin. Each test compound was added into each well to adjust the final concentration of DMSO to 0.1%, and the cells were cultured for 4 days. The number of viable cells in each well was then measured with CellTiter-Glo® Luminescent Cell Viability Assay (Promega) to calculate the concentration of each test compound for 50% inhibition of cell proliferation (Sphere IC50 value; μmol/L).
The experiment of Test Example 2 was performed for each compound of each Example.
The concentration of each test compound for 50% inhibition of cell proliferation (Sphere IC50 value; μmol/L) is shown in the following Table.

Row | Structure (SMILES) | (100%-inhibition rate of cell proliferation) at 1 μmol/L, FaDu (FaDu cells) [%] | (100%-inhibition rate of cell proliferation) at 1 μmol/L, HCT-116 (HCT-116 cells [1]) [%] | (100%-inhibition rate of cell proliferation) at 1 μmol/L, HT-29 (HT-29 cells) [%] | viability at 1 µM (FaDu cells; Homo sapiens) [%] | viability at 1 µM (HCT-116 cells [1]; Homo sapiens) [%] | viability at 1 µM (HT-29 cells; Homo sapiens) [%] | further results
1 | O=C(Nc1cn(Cc2cccc(OC(F)(F)F)c2)cn1)c1ccc(OCC(F)(F)F)nc1 [Example 222] | – | – | – | – | – | – | IC50 (FaDu cells): 9.74 µmol/L; IC50 (HCT-116 cells [1]): > 10 µmol/L; IC50 (HT-29 cells): 4.81 µmol/L
2 | Cc1ccc(F)c(Cn2cnc(NC(=O)c3ccc(OCC(F)(F)F)nc3)c2)c1F [Example 223] | – | – | – | – | – | – | IC50 (FaDu cells): 0.81 µmol/L; IC50 (HCT-116 cells [1]): 0.76 µmol/L; IC50 (HT-29 cells): 0.65 µmol/L
3 | Nc1ccc(C(=O)Nc2cn(Cc3cccc(Cl)c3)cn2)cn1 [Example 224] | – | – | – | – | – | – | IC50 (FaDu cells): 5.44 µmol/L; IC50 (HCT-116 cells [1]): 6.71 µmol/L; IC50 (HT-29 cells): 5.51 µmol/L
4 | O=C(Nc1cn(Cc2cccc(C(F)(F)F)c2)cn1)c1ccc(F)nc1 [Example 226] | 87.9 | 45.7 | 91.7 | – | – | – | –
5 | Cn1cc(C(=O)Nc2cn(Cc3cccc(C(F)(F)F)c3)cn2)ccc1=O [Example 242, 1-Methyl-6-oxo-N-{1-[3-(trifluoromethyl)benzyl]-1H-imidazol-4-yl}-1,6-dihydropyridine-3-carboxamide] | – | – | – | – | – | – | IC50 (FaDu cells; Homo sapiens): 0.11 µmol/L; IC50 (HCT-116 cells [1]; Homo sapiens): 0.38 µmol/L; inhibitory effect on the sphere-forming ability of cancer cells (HCT-116 cells [1]; Test Example 1, summary in words, cell line not given (HCT-116, HT-29, FaDu tested)): particularly potent inhibitory effect; IC50 (HCT-116 cells [2]): 2.14 µM; IC50 (HT-29 cells; Homo sapiens): 0.29 µmol/L
6 | Cn1cc(C(=O)Nc2cn(Cc3cccc(Cl)c3)cn2)ccc1=O [Example 243] | – | – | – | 29 | 23.8 | 19.5 | –
7 | COCCOc1ccc(C(=O)Nc2cn(Cc3cccc(Cl)c3)cn2)cn1 [Example 244, N-[1-(3-Chlorobenzyl)-1H-imidazol-4-yl]-6-(2-methoxyethoxy)nicotinamide] | – | – | – | 36.7 | 46.7 | 27 | –
8 | O=C(Nc1cc(-c2ccccc2)n[nH]1)c1cn(Cc2cccc(Cl)c2)cn1 [Example 259] | – | – | – | – | – | – | IC50 (FaDu cells): 0.74 µmol/L; IC50 (HCT-116 cells [1]): 0.92 µmol/L; IC50 (HT-29 cells): 0.74 µmol/L
9 | COCCOc1ccc(C(=O)Nc2cn(Cc3cccc(Cl)c3)cn2)cc1 [Example 265, N-[1-(3-Chlorobenzyl)-1H-imidazol-4-yl]-4-(2-methoxyethoxy)benzamide] | – | – | – | 41.2 | 41.7 | 33.1 | –
10 | Cc1cccc(C(=O)Nc2cn(Cc3cccc(Cl)c3)cn2)n1 [Example 279] | – | – | – | 47.2 | 87.4 | 42.3 | –
11 | O=C(Nc1cn(Cc2cccc(Cl)c2)cn1)c1cncc(Br)c1 [Example 283] | – | – | – | 50 | 75.6 | 44.7 | –
12 | COc1ccc(C(=O)Nc2cn(Cc3ccc(C(F)(F)F)cc3)cn2)cc1OC [Example 287] | 53.0 | 95.8 | 124 | – | – | – | –
13 | COc1ccc(C(=O)Nc2cn(Cc3cccc(C)c3)cn2)cc1OC [Example 291] | 37.8 | 70.8 | 37.1 | – | – | – | –
14 | COc1ccc(C(=O)Nc2cn(Cc3ccc(C)c(Cl)c3)cn2)cc1OC [Example 295] | 31.8 | 83.0 | 37.8 | – | – | – | –
15 | COc1ccc(C(=O)Nc2cn(Cc3cccc(Oc4ccccc4)c3)cn2)cc1OC [Example 297] | 31.4 | 56.6 | 33.7 | – | – | – | –
